# Assays:
# Format in all cases: cell-based, human
# [1] = test system: rotenone-inhibited Complex I; assay: Complex I-bypass assay ((CI)-bypass assay), high-resolution respirometry O2 consumption; conditions: Leigh (GM03672) fibroblasts, 0.5 μM rotenone, oxygen consumption rate; read-out: EC50 value, Complex I by-pass activity
# Procedure: All high-resolution respirometry experiments were conducted using the Oroboros O2k-Fluorespirometer (Oroboros, Innsbruck, Austria). The Oroboros O2k-Fluorespirometer was calibrated daily using the air calibration protocol on DatLab 7.4 (Oroboros, Innsbruck, Austria). Prior to each experiment requiring the fluorescence module, the AmpR calibration protocol from DatLab 7.4 was used to calibrate the fluorescence signal. Initial data analysis, including setting of marks, was performed using DatLab 7.4.
# Complex I-bypass activity was assessed using HRR to measure O2 consumption. Briefly, Leigh (GM03672) fibroblasts were harvested with trypsin, pelleted at 300×g centrifugation, and resuspended in prewarmed, complete MEM. Cells were added to each chamber via buffer replacement at a concentration of 1-2 million per mL. The chambers were closed to initiate measurement of O2 consumption. The slope negative signal, which is a derivative of O2 consumption, was allowed to stabilize over the course of several minutes. Using a Hamilton syringe to allow for continuous measurement of O2 consumption, glutamate (10 mM final concentration) and malate (0.1 mM final concentration) were added to the closed chamber through the central capillary of the stopper. The slope negative signal was stabilized for several minutes, and rotenone was added at a final concentration of 0.5 μM. One of Compounds 1 to 4 or Vatiquinone was added at increasing concentrations, allowing for several minutes of stabilization of the slope negative signal between titrations. Marks were set at signal plateaus in between titrations. Values were exported and analyzed using GraphPad Prism 9. […] Responsiveness of cells was confirmed with idebenone.
# Statistical analysis was performed using GraphPad Prism 9. Complex I-bypass data were fit using nonlinear sigmoidal 4P fit. RET Assay data were analyzed by 2-way ANOVA using a p-value of 0.05.
# The Complex 1-bypass assay ((CI)-bypass Assay) evaluates the capacity of compounds to donate electrons into the electron transport chain (ETC) when Complex I is impaired or otherwise deficient. Normally, electrons feed into the ETC through Complex I. In instances where Complex I is impaired, electrons must enter the ETC downstream of Complex I for oxidative phosphorylation (OXPHOS) to occur. Complex I is composed of 46 subunits, encoded by mitochondrial and nuclear genes. Due to its large size, Complex I mutations are a common cause of ETC dysfunction in mitochondrial diseases. Indeed, mutations in the genes that encode subunits for Complex I are important causes of Leigh and Leigh-like syndrome.
# Using this assay, the ability of Compounds 1 to 4 and Vatiquinone to bypass rotenone-inhibited Complex I was determined. Rotenone is a widely used Complex I inhibitor and blocks the transfer of electrons from the iron-sulfur complexes on Complex I to ubiquinone. Thus, when rotenone is introduced to cells underdoing routine respiration, a decrease in oxygen consumption is observed, which is indicative of disrupted OXPHOS. The ability of Compounds 1 to 4 and Vatiquinone to “bypass” Complex I and restore OXPHOS is measured by an increase in oxygen consumption rate following addition of the compound to the chamber.
# In executing this assay, in each instance, fibroblasts are added to each chamber of the Oroboros Oxygraph-2K (the “O2k”). The O2k generates two traces: 1) total oxygen consumption over time, 2) the rate of oxygen consumption over time (slope negative). Baseline respiration is established for several minutes by allowing the slope negative to stabilize. Rotenone is introduced to each chamber at a final concentration of 0.5 μM. The addition of rotenone is expected to cause a marked reduction of OXPHOS as measured by a decreased rate of oxygen consumption. Then the test article (i.e., in this case one of Compounds 1 to 4 or Vatiquinone) is added to the chamber. […]
# [2] = test system: Healthy (GM08402) fibroblasts; assay: RSL3 cytoprotection assay, healthy fibroblasts; conditions: 1 μM RSL3, 10-1000 nM compound, 4 h
# Procedure: (§1) Patient fibroblasts were acquired from Coriell Institute for Medical Research (Camden, NJ, USA). GM03672 is an untransformed fibroblast cell line from a Leigh syndrome patient carrying an unknown mutation. GM08402 is an untransformed fibroblast from an apparently healthy individual. Cells were cultured at 37° C. at 5% CO2 in Eagle's Minimum Essential Medium (MEM, Corning), which was supplemented with Earle's salts and non-essential amino acids, 15% qualified fetal bovine serum, and 1% penicillin/streptomycin ([…]) to yield “Complete MEM.”
# (§2) To initiate the RSL3 cytoprotection experiment, Healthy (GM08402) and Leigh syndrome (GM03672) fibroblasts were resuspended in Complete MEM. Cells were seeded at 10,000 cells per well in a clear, tissue cultured-treated, 96-well plate and incubated at 37° C. overnight. Following the incubation, supernatant was manually aspirated, taking care not to disrupt cells. […]. Luminescence units were quantified by GEN5 software on a BioTek SYNERGY neo2 plate reader (LUM filter).
# (§3) RSL3 is an inhibitor of the enzyme glutathione peroxidase 4 (GPX4), which decreases lipid peroxides. RSL3 inhibition of GPX4 induces ferroptosis through iron-dependent accumulation of lipid ROS. In this assay, Healthy or Leigh fibroblasts were treated for 4 hours with RSL3 to induce ferroptosis or left untreated. Endogenous ATP levels were measured as an indicator of cellular viability using a commercially available kit (CellTiter-Glo® 2.0 Cell Viability Assay (Promega)).
# (§4) […]. […] Briefly, ferroptosis was induced with 1 μM RSL3 in healthy fibroblast cells and 375 nM RSL3 in fibroblasts from a patient with Leigh syndrome.
# (§5) A preliminary experiment was performed to determine the effect of RSL3 injury on the fibroblasts of a healthy individual (cell line: GM08402) and the fibroblasts of a patient diagnosed with Leigh syndrome (cell line: GM03672).
# [3] = test system: 15-lipoxygenase (15-LO); assay: 15(S)-HETE ELISA following RSL3 treatment, Leigh fibroblasts; conditions: 700 nM RSL3, 1 μM compound, 24 h
# Procedure: Samples for the 15(S)-HETE ELISA were generated by the RSL3 cytoprotection assay described above. Healthy or Leigh fibroblasts were resuspended in assay medium, seeded at 200,000 cells per well in a clear, tissue culture-treated, 24-well plate. Cells were incubated at 37° C. for 24 hours. Supernatant was aspirated from each well following the incubation.
# Fibroblasts from both a healthy individual and a patient diagnosed with Leigh syndrome were examined (but not all compounds were examined in each cell type). Activation of ferroptosis has been implicated as a driver of epilepsy, which is commonly associated with Leigh syndrome. […] Kahn-Kirby et al. PLOS One. […] As a key regulator of ferroptosis, 15-LO serves as a rational therapeutic target in Leigh syndrome.
# [4] = test system: Leigh syndrome (GM03672) fibroblasts; assay: RSL3 cytoprotection assay, Leigh fibroblasts; conditions: 375 nM RSL3, 10-1000 nM compound, 4 h
# Procedure: as §1, §2, §3, §4, §5
structure (smiles),measurement,setting,value
CC1=C(C)C(=O)C(CC[C@@](C)(O)CC/C=C(\C)CCC=C(F)F)=C(C)C1=O [Compound 2],EC50,[1],~4.09 µM
same,relative anti-ferroptosis properties (comparison between test articles),[2],"superior to Compounds 1, 4 and Vatiquinone"
same,relative 15-LO inhibition (comparison between test articles),[3],roughly equivalent protective effect
same,relative anti-ferroptosis properties (comparison between test articles),[4],"superior to Compounds 1, 4 and Vatiquinone"
CC1=C(C)C(=O)C(CC[C@@](C)(O)COCCC[Si](C)(C)C)=C(C)C1=O [Compound 3],EC50,[1],~3.41 µM
same,relative anti-ferroptosis properties (comparison between test articles),[2],"superior to Compounds 1, 4 and Vatiquinone"
same,relative 15-LO inhibition (comparison between test articles),[3],roughly equivalent protective effect
same,relative anti-ferroptosis properties (comparison between test articles),[4],"superior to Compounds 1, 4 and Vatiquinone"
CC1=C(C)C(=O)C(CC[C@](C)(O)CCCCCCCCC(F)(F)F)=C(C)C1=O [Compound 4],EC50,[1],~8.8 µM
same,relative anti-ferroptosis properties (comparison between test articles),[2],roughly equivalent in their anti-ferroptosis properties
same,relative 15-LO inhibition (comparison between test articles),[3],roughly equivalent protective effect
same,relative anti-ferroptosis properties (comparison between test articles),[4],roughly equivalent in their anti-ferroptosis properties
